Laboratory results taken from the NIST ThermoML archive (doi:10.1021/je0498208).

Assay: xn = mol fraction of the nth substance listed
Details: Liquid; for viscosity: 101 kPa; for mass density: 101.3 kPa

O=CN1CCOCC1 [N-formylmorpholine] + O
Details | mass density [kg/m3] | viscosity [mPa·s]
298.15 K, x1 = 0.0499 | 1038.7 | 1.45
298.15 K, x1 = 0.1007 | 1067.03 | 2.22
298.15 K, x1 = 0.1976 | 1099.55 | 3.82
298.15 K, x1 = 0.3006 | 1117.88 | 5.05
298.15 K, x1 = 0.3917 | 1127.34 | 5.95
298.15 K, x1 = 0.5001 | 1134.34 | 6.53
298.15 K, x1 = 0.5834 | 1137.94 | 6.81
298.15 K, x1 = 0.6969 | 1141.28 | 7.25
298.15 K, x1 = 0.7942 | 1143.43 | 7.27
298.15 K, x1 = 0.9047 | 1145.19 | 7.53
298.15 K, x1 = 0.9493 | 1145.97 | 7.7
298.15 K, x1 = 1 | 1146.62 | 7.87
303.15 K, x1 = 0.0499 | 1036.24 | 1.29
303.15 K, x1 = 0.1007 | 1063.95 | 1.85
303.15 K, x1 = 0.1976 | 1095.78 | 3.33
303.15 K, x1 = 0.3006 | 1113.82 | 4.31
303.15 K, x1 = 0.3917 | 1123.11 | 5.04
303.15 K, x1 = 0.5001 | 1130.03 | 5.54
303.15 K, x1 = 0.5834 | 1133.6 | 5.79
303.15 K, x1 = 0.6969 | 1136.91 | 6.02
303.15 K, x1 = 0.7942 | 1139.05 | 6.21
303.15 K, x1 = 0.9047 | 1140.81 | 6.46
303.15 K, x1 = 0.9493 | 1141.6 | 6.62
303.15 K, x1 = 1 | 1142.26 | 6.75
313.15 K, x1 = 0.0499 | 1030.93 | 1.038
313.15 K, x1 = 0.1007 | 1057.44 | 1.52
313.15 K, x1 = 0.1976 | 1088.06 | 2.44
313.15 K, x1 = 0.3006 | 1105.52 | 3.23
313.15 K, x1 = 0.3917 | 1114.62 | 3.77
313.15 K, x1 = 0.5001 | 1121.35 | 4.19
313.15 K, x1 = 0.5834 | 1124.87 | 4.33
313.15 K, x1 = 0.6969 | 1128.16 | 4.55
313.15 K, x1 = 0.7942 | 1130.3 | 4.7
313.15 K, x1 = 0.9047 | 1132.07 | 4.9
313.15 K, x1 = 0.9493 | 1132.87 | 5.03
313.15 K, x1 = 1 | 1133.53 | 5.13
323.15 K, x1 = 0.0499 | 1025.15 | 0.854
323.15 K, x1 = 0.1007 | 1050.64 | 1.23
323.15 K, x1 = 0.1976 | 1080.16 | 1.95
323.15 K, x1 = 0.3006 | 1097.1 | 2.5
323.15 K, x1 = 0.3917 | 1105.98 | 2.88
323.15 K, x1 = 0.5001 | 1114.62 | 3.21
323.15 K, x1 = 0.5834 | 1116.08 | 3.35
323.15 K, x1 = 0.6969 | 1119.37 | 3.53
323.15 K, x1 = 0.7942 | 1121.52 | 3.67
323.15 K, x1 = 0.9047 | 1123.33 | 3.86
323.15 K, x1 = 0.9493 | 1124.14 | 4.01
323.15 K, x1 = 1 | 1124.82 | 4.03
333.15 K, x1 = 0.0499 | 1018.01 | 0.715
333.15 K, x1 = 0.1007 | 1043.55 | 1.018
333.15 K, x1 = 0.1976 | 1072.05 | 1.57
333.15 K, x1 = 0.3006 | 1088.55 | 2.1
333.15 K, x1 = 0.3917 | 1097.24 | 2.41
333.15 K, x1 = 0.5001 | 1103.8 | 2.65
333.15 K, x1 = 0.5834 | 1107.26 | 2.73
333.15 K, x1 = 0.6969 | 1110.55 | 2.84
333.15 K, x1 = 0.7942 | 1112.72 | 2.96
333.15 K, x1 = 0.9047 | 1114.57 | 3.2
333.15 K, x1 = 0.9493 | 1115.4 | 3.21
333.15 K, x1 = 1 | 1116.11 | 3.25
343.15 K, x1 = 0.0499 | 1011.38 | 0.67
343.15 K, x1 = 0.1007 | 1036.08 | 0.857
343.15 K, x1 = 0.1976 | 1063.72 | 1.27
343.15 K, x1 = 0.3006 | 1079.83 | 1.8
343.15 K, x1 = 0.3917 | 1088.36 | 2.05
343.15 K, x1 = 0.5001 | 1094.88 | 2.26
343.15 K, x1 = 0.5834 | 1098.33 | 2.33
343.15 K, x1 = 0.6969 | 1101.67 | 2.37
343.15 K, x1 = 0.7942 | 1103.88 | 2.52
343.15 K, x1 = 0.9047 | 1105.79 | 2.67
343.15 K, x1 = 0.9493 | 1106.66 | 2.67
343.15 K, x1 = 1 | 1107.39 | 2.68
